In PMC6704344, “The Preclinical Pharmacological Study of a Novel Long-Acting Local Anesthetic, a Fixed-Dose Combination of QX-OH/Levobupivacaine, in Rats” (Frontiers in Pharmacology, 2019):

Assays:
[1] = Plasma pharmacokinetics after sciatic nerve block in rats; format: in vivo, rat; conditions: for Tmax / AUC(0-inf) / AUC(0-t) / Cmax / Vd/F / half-life / CL/F: plasma
Source text: (§1) In brief, rats were anesthetized by inhaling 1%–2% isoflurane mixed with oxygen through an inhouse-made mask. Then, the rats were placed at right lateral position and inserted vertically using a 23-gauge injector at the middle of the line from the greater trochanter to ischial tuberosity ([Binshtok et al., 2007]; [Zhang et al., 2017b]).
According to the China Food and Drug Administration guidance for preclinical pharmacokinetic study, there should be more than three sampling points adjacent to the time to reach the maximum concentration. […] Thus, to obtain an accurate value of the maximum concentration of Levo-Bupi, we added another time point at 0.33 h. […] Blood samples were maintained in heparinized polypropylene tube separately and then centrifuged at 877 × g for 10 min to gain plasma within 1 h. All the samples were kept at -80°C.
(§2) According to previous study ([Zhang et al., 2017a]), plasma samples were deproteinized by acetonitrile solution with ropivacaine hydrochloride (internal standard, IS). The mixture was centrifuged for 10 min at 28,621 × g in 4°C after fully vortexed. The supernatant was diluted with ultrapure water (50:50, v/v). Muscle and sciatic nerve samples were homogenized by gentleMACS™ Dissociator (Miltenyi Biotec, Germany) and tissue grinder (model SCIENTZ-48, Ningbo, China), respectively. Tissue homogenate was mixed with IS solution by vortex and then centrifuged for 10 min at 28,621 × g. Then, the supernatant was diluted with ultrapure water at equal volume ratio. LC-MS/MS analysis system consist of Agilent 6460 triple quadrupole mass spectrometer and electrospray ionization source (Agilent Technologies, CA, USA). Chromatographic separation was adopted by Agilent Extend C18 column (100 mm × 3 mm, 3.5 μm) at 35°C with isocratic elution containing 0.05% formic acid and acetonitrile at the volume ratio of 78:22 at a flow rate of 0.3 ml/min. Mass spectrometry conditions were in a positive ionization mode: the sheath gas flow rate, 11.0 L/min; sheath gas heater temperature, 300°C; nebulizer pressure, 45 psi; capillary voltage, 3,500 V. MassHunter software was used to analyze data (B.04.00 Build 4.0.479.0, Agilent Technologies, USA).
(§3) The parameters of pharmacokinetics were analyzed by DAS® (Drug and Statistics, version 3.2.1, China) using noncompartmental model. In this study, the following pharmacokinetic parameters were calculated: the value of maximum concentration (Cmax) and the time to acquire (Tmax); the elimination half-life (t1/2); area under curve (AUC) from zero to the last time point (AUC0–last) and from zero to infinity (AUC0–∞); clearance (CL/F), and volume of distribution (Vd/F).

[2] = Drug concentration and pharmacokinetics in muscle near the injection site after sciatic nerve block in rats; format: in vivo, rat
Procedure: as §1, with “2017b]). Once the bone has been contacted, 200 μl drug was injected.” for “2017b]).”
(§4) On the basis of previous pharmacodynamic studies, nine sampling points were used for determining drug concentration in muscle and sciatic nerve for QX-OH and LL-1: 0.5, 1, 2, 3, 4, 5, 6, 7, and 8 h; four sampling points for Levo-Bupi: 0.5, 1, 2, and 3 h. Due to the destructive sampling, five male rats were sacrificed at each time point for collecting muscle and sciatic nerve nearby the injection site. Then all samples were weighed and frozen at -80°C.
as §2, §3

[3] = Drug concentration and pharmacokinetics in sciatic nerve after sciatic nerve block in rats; format: in vivo, rat
Procedure: as §1, with “2017b]). Once the bone has been contacted, 200 μl drug was injected.” for “2017b]).”
as §4, §2, §3

[4] = system: frog sciatic nerve fibers; experiment: Compound action potentials (CAPs) from frog sciatic nerve fibers; conditions: LL-1, 35 mM QX-OH, 10 mM Levo-Bupi
Source text: According to previous published researches ([Matsushita et al., 2013]; [Ohtsubo et al., 2015]). Nine of frogs were decapitated and then pithed. Then, the sciatic nerve was dissected from the lumbar plexus to the knee. The two ends of isolated sciatic nerves were carefully tied to the wires by threads and placed in Ringer solution (NaCl, 115.5 mmol/L; KCl, 2.0 mmol/L; CaCl2, 1.8 mmol/L; Na2HPO4, 1.3 mmol/L and NaH2PO4, 0.7 mmol/L; pH = 7.4).
The compound action potentials (CAPs) from frog sciatic nerve fibers was recorded by the biological function experiment system (BL-420F, Chengdu Techman Software, China). All practices were carried out at room temperature. The sciatic nerve was loosely placed in three platinum wires and then CAPs were recorded in air using a preamplifier. In this system, two of the platinum wires were used to record CAPs, and the other one was for stimulation. The parameters of stimulation were set as follows: intensity, 3 V; frequency, 1 Hz; rectangular pulses, 0.1 ms. The procedure should be performed quickly in order to avoid the nerve dry. The time of measurement should be less than 2 min. […] In this study, we compared the amplitude of CAPs after using drugs with baseline to present the degree of inhibition from frog sciatic nerve, and which was analyzed using the following equation: CAPs amplitude (%) = CAPs measurement/CAPs baseline × 100%.

HT22 cells = experiment: Cellular drug uptake assay; format: cell-based, mouse; conditions: LL-1 vs 10 mM Levo-Bupi alone, 10 min incubation, n = 10, p = 0.067
Procedure: HT22 cell line, a sub-line derived from HT4 cells that were originally immortalized from primary mouse hippocampal neuron, were a generous gift from Dr. Huang (West China Second University Hospital, Sichuan University, China). HT22 cells were cultured in DMEM with high glucose (HyClone, Utah, USA) supplemented with 10% fetal bovine serum (Gibco, New York, USA) and 1% penicillin and streptomycin (HyClone, Utah, USA) in a humidified incubator with 5% CO2 and 95% air at 37°C.
According to previous study ([Brenneis et al., 2014]), cells were plated on 35 mm 6-well dishes (2.5 × 10^5 per well). When cells reached confluence at 70%–80%, the medium was removed, and plates washed with PBS (NaCl, 137.0 mmol/L; KCl, 2.7 mmol/L; KH2PO4, 1.5 mmol/L and Na2HPO4·12H2O, 8.0 mmol/L; pH = 7.4). Thirty wells were divided to incubate with LL-1, 35 mM QX-OH and 10 mM Levo-Bupi for 10 min, and then washed four times with PBS. Cells were translated to polypropylene tube. The cell suspensions were centrifuged at 72 × g and the supernatants were removed by pipette. All samples were frozen at -80°C before testing. Samples were homogenized with 100 µL of saline using a tissue grinder. After mixing 50 μl homogenate, 50 μl acetonitrile, and 10 μl IS, then the mixture was centrifuged for 10 min at 28,621 × g, and the supernatant was injected for analysis.

[5] = parameters: method as in Corvetto et al., 2012; conditions: transversus abdominis plane block; ref Corvetto et al., 2012; cited from earlier work
[6] = parameters: method as in Yu et al., 2002; conditions: subcutaneous administration; ref Yu et al., 2002; cited from earlier work
RAW, N1E and CHO cells = conditions: cited from earlier work
[7] = both sexes, rat, 200 μl, Levobupivacaine alone (single drug), sciatic nerve block, mean ± SEM
[8] = both sexes, rat, given as LL-1, sciatic nerve block, n = 10, mean ± SEM
[9] = male, rat, muscle near the injection site, muscle, given as LL-1, sciatic nerve block, n = 5 per time point, mean ± SEM
[10] = muscle, given as LL-1, sciatic nerve block, n = 5 per time point, mean ± SEM
[11] = male, rat, sciatic nerve, given as LL-1, sciatic nerve block, n = 5 per time point, mean ± SEM
[12] = sciatic nerve, given as LL-1, sciatic nerve block, n = 5 per time point, mean ± SEM

CCCCN1CCCC[C@H]1C(=O)Nc1c(C)cccc1C [Levobupivacaine, levobupivacaine]
change of Tmax in plasma in combination with QX-OH vs alone ([1]; LL-1 vs Levo-Bupi alone, sciatic nerve block): increased by four times
Tmax ([1]; Sprague-Dawley, 200 μl, Levo-Bupi as a single drug, rat sciatic nerve block, preliminary experiment, read-out: time to maximum concentration): 0.5 h
AUC(0-inf) [1, 7]: 509 ± 31.5 ng·h/mL
AUC(0-t) [1, 7]: 471 ± 23.3 ng·h/mL
Cmax [1, 7]: 142 ± 13 ng/mL
Vd/F [1, 7]: 4.81 ± 0.5 L
half-life [1, 7]: 2.61 ± 0.31 h
Tmax ([1]; both sexes, rat, 200 μl, Levobupivacaine alone (single drug), sciatic nerve block, mean ± SEM, read-out: Tmax): 1.07 ± 0.16 h
Cmax ([1]; both sexes, rat, given as LL-1 (35 mM QX-OH/10 mM Levo-Bupi), 200 μl, sciatic nerve block, n = 10, mean ± SEM): 114 ± 10.2 ng/mL
AUC(0-inf) [1, 8]: 819 ± 78.8 ng·h/mL
AUC(0-t) [1, 8]: 651 ± 47.4 ng·h/mL
Vd/F [1, 8]: 3.81 ± 0.7 L
half-life [1, 8]: 4.89 ± 1.77 h
Tmax ([1]; both sexes, rat, given as LL-1, sciatic nerve block, n = 10, mean ± SEM, read-out: Tmax): 4.11 ± 0.39 h
CL/F ([1]; Levobupivacaine alone (single drug), sciatic nerve block, mean ± SEM): 1.32 ± 0.08 L/h
CL/F ([1]; given as LL-1, sciatic nerve block, n = 10, mean ± SEM): 0.78 ± 0.10 L/h
Tmax ([1]; rat, Levo-Bupi in combination with QX-314 (35 mM/10 mM), sciatic nerve block, n = 10, read-out: Tmax): 4 h
increase of concentration in muscle, LL-1 vs single drug ([2]; at the same time points): 2 to 15 times
Tmax ([2]; male, rat, muscle near the injection site, muscle, given as LL-1, sciatic nerve block, n = 5 per time point): 0.5 h
Cmax [2, 9]: 256000 ± 28500 ng/g
Vd/F [2, 9]: 3.01 ± 1.21 L
half-life [2, 9]: 1.38 ± 0.6 h
AUC0–t [2, 10]: 417.58 ± 43.46 µg·h/g
AUC0–∞ [2, 10]: 417.86 ± 43.49 µg·h/g
CL/F [2, 10]: 1.59 ± 0.17 L/h
increase of concentration in sciatic nerve, LL-1 vs single drug ([3]; at the same time points): 1.5 to 24 times
Tmax ([3]; male, rat, sciatic nerve, given as LL-1, sciatic nerve block, n = 5 per time point): 0.5 h
Cmax [3, 11]: 430000 ± 48600 ng/g
Vd/F [3, 11]: 1.23 ± 0.8 L
half-life [3, 11]: 1.28 ± 0.74 h
AUC0–t [3, 12]: 935.82 ± 74.35 µg·h/g
AUC0–∞ [3, 12]: 935.88 ± 74.39 µg·h/g
CL/F [3, 12]: 0.70 ± 0.05 L/h
soak time required to block CAPs ([4]; n = 6, mean ± SEM): 14.17 ± 2.01 min
CAPs amplitude (% of baseline) ([4]; within the first 5 min of soaking): 34%
cellular uptake of Levo-Bupi (HT22 cells): had no difference
change of Tmax on combining with epinephrine [5]: doubled

CCCCN1CCCCC1C(=O)Nc1c(C)cccc1C (stereo not drawn) [bupivacaine]
time at which Cmax was reached [6]: 0.5 h

CC[N+](CC)(CC)CC(=O)Nc1c(C)cccc1C.[Br-] [QX-314]
cellular uptake of QX-314 in presence of bupivacaine (RAW, N1E and CHO cells): enhanced the cellular uptake
